Measured values taken from patent publication US8618068B2, “Methods and low dose regimens for treating red blood cell disorders” (priority 2009, dated 2013).
Marks after values point to notes of the source that are not given here.

Experiments:
fetal hemoglobin (HbF) = assay: Phase 2 trial in thalassemia intermedia patients, HbF and total hemoglobin; type: in vivo, human
Description: A randomized, doubled blind, placebo-controlled, multiple ascending dose Phase I/II trial was conducted in 21 adult patients with beta thalassemia intermedia, including 14 patients with HbE/β^0 thalassemia from Thailand and 7 patients with β^+/β^0 thalassemia (including 12 different beta globin gene mutations). Study medication was taken as a single daily dose of DMB for 8 weeks followed minimally by a 4 week break and follow-up period. Four ascending dose levels (10, 20, 30, and 40 mg/kg/day) were sequentially evaluated in 4 dose level cohorts after the preceding dose and schedule were determined safe by an independent and unblinded Safety Monitoring Committee.
All treatment groups had two placebo patients; placebo patients in the first dose group were randomized to treatment in the second dose group. Ten patients in Thailand (all HbE type) were treated with 10 mg/kg (8 active/2 placebo) followed by eight patients in Thailand who were treated followed by 30 mg/kg (6 active/2 placebo). Eleven patients (4 That, 7 Lebanese) were treated with 20 mg/kg followed by 40 mg/kg (9 active [6 Lebanese/3 That]/2 placebo). Patients ranged in age from 17 to 49 with a median age of 31 and were comprised for 16 females and 5 males.
Patients were monitored every 2 weeks for laboratory studies, physical examinations, and adverse events. Further, patients were followed for hematologic parameters primarily focusing on hemoglobin and fetal hemoglobin (HbF). In addition, pharmacokinetic samples were obtained on Day 0 and 13, at pre-dose and 2, 4, 6, 8, 12, and 24 hours post-dosing. Hemoglobin was measured at each site using standard hematology equipment. HbF was measured using Varian HPLC. […] Adverse events in treated subjects included headache, upper respiratory infection, pyrexia, fatigue, nausea, and dizziness, but the rates of such events were not markedly different from those observed in the placebo-treated subjects.

in vivo [1] = type: in vivo
Text: Completed toxicology studies conducted with DMB include a single-dose toxicity study in Sprague-Dawley rats, escalating dose toxicity study in Beagle dogs, a repeat dose study of 14-Day duration in Sprague-Dawley rats and repeat-dose toxicity studies of 28-Day duration in Sprague-Dawley rats and Beagle dogs, and 26-Week studies in Sprague-Dawley rats and Beagle dogs. […] Reproductive toxicity studies include two dose-range finding studies, one in Sprague-Dawley rats, the other in New Zealand white rabbits. DMB was administered once a day (QD) orally via gavage; doses are expressed as the sodium salt. In addition, an array of genotoxicity studies were conducted with DMB.
There were no abnormal macroscopic or microscopic observations associated with the elevated kidney or brain weights. These treatment-related findings were not considered adverse. The NOAEL for DMB administered to Sprague-Dawley rats for a minimum of 181 days was considered to be 500 mg/kg/day, whereas the NOEL for female Sprague-Dawley rats was 100 mg/kg/day.

in vivo [2] = assay: in vivo; set-up: species or system baboon; conditions: po
Description: Additionally, the pharmacokinetic profile of DMB was evaluated in a female baboon who received an IV dose of 50 mg/kg and single oral doses of 100, 150 and 200 mg/kg. Following IV administration, DMB concentrations peaked at the end of dose administration and decayed in a log-linear fashion with no obvious appearance of a distribution phase and after oral administration, the concentration reached a peak within 2 hours after dosing and subsequently decayed in a log-linear fashion at all three dose levels. There was a secondary DMB peak which occurred at 6 hours after dosing of the 200 mg/kg oral dose (FIG. 4).
Vz/F was consistently smaller as the dose was increased.

[3] = system: micronucleated erythrocytes (PCEs); conditions: rat, in vivo
Description: The potential for DMB to induce formation of micronuclei in vivo was evaluated as part of the initial 14-Day toxicity repeat dose toxicity study in rats administered doses of 0, 200, 600 and 1,000 mg/kg/day for 14 days.

[4] = system: β- and γ-globin gene promoters; assay: Double-luciferase reporter assay of γ-globin expression in GM979 cells; type: cell-based, murine
Text: DMB was compared to arginine butyrate (AB) for its ability to induce y-globin expression in a double-luciferase reporter assay in murine erythroleukemia (GM979) cells transfected with the pLCR linked to the β- and γ-globin gene promoters linked to a different luciferase gene.

[5] = Half-life of DMB (summary statement); conditions: in vivo
in vivo [6] = assay: in vivo; set-up: species or system Sprague-Dawley rats; conditions: rat; for NOAEL at 14 days: Sprague-Dawley
Description: […] With respect to the FOB measurements, the effect of DMB appeared to be more pronounced in females than males. […] However, decreased motor activity, reduced rectal temperature, direct limbic effects such as a deficit in visual tactile placing accuracy, ataxia, dragging of the hindlimbs in the open field, and decreased grip strength and neuromotor-neuromuscular deficits were only documented in the female rats at 600 mg/kg. In the male rats, these effects were present only in the animals treated with 1,000 mg/kg.

[7] = Phase 2 trial in sickle cell disease patients, safety; type: in vivo, human; conditions: 10, 20, 30 mg/kg/day
Description: A randomized, blinded dose-ranging Phase 1/2 clinical trial was performed in 24 US and Jamaican adult patients with sickle cell disease (including HbSS or S/β thalassemia). DMB was administered once daily for six week cycles of daily therapy with a 2 week treatment break between two cycles, then followed by a final 4 weeks without treatment. Three dose levels (10, 20, 30 mg/kg/day) were studied sequentially. Four out of 24 subjects were treated with placebo and 21 subjects were evaluable. Seven Patients (5 active/2 placebo) at 10 mg/kg, 6 patients (5 active/1 placebo) at 20 mg/kg, and 9 patients (7 active/1 placebo) at 30 mg/kg were randomized in the study. Patients ranged in age from 14 to 56 with a median age of 31 and were comprised of […]. Patients were followed for hematologic parameters focusing on fetal hemoglobin (HbF). HbF was measured by a Waters Empower 32 HPLC system with a Synchropak CM-300 column.

## CCC(C)(C)C(=O)[O-].[Na+] [DMB, Sodium 2,2-dimethylbutyrate]
Fetal hemoglobin (HbF); 20 mg/kg group
  patients in whom total hemoglobin increased: 2 out of 9
Fetal hemoglobin (HbF); Day 55
  dose level with the largest increase in HbF: 20 mg/kg
Fetal hemoglobin (HbF); all 4 DMB dose groups, compared to minimal change in placebo
  change in HbF at Day 55: median increases
Fetal hemoglobin (HbF); all groups including placebo
  Median change from baseline to Day 55 in total hemoglobin: decreases
In vivo [1]; both sexes, rat, in vivo, minimum of 181 days, oral
  NOAEL at 181 days: 500 mg/kg/day
In vivo [1]; daily oral, 26 weeks
  mortalities or clinical observations: no test article-associated mortalities or clinical observations
In vivo [1]; female, Sprague-Dawley, rat, in vivo, 181 days
  NOEL: 100 mg/kg/day
In vivo [1]; rat, in vivo
  adverse effects: no adverse effects
In vivo [1]; rat, in vivo, 500 mg/kg/day
  mean absolute and relative liver weights: associated increases
In vivo [2]; female, monkey
  half-life: 2.89 to 6.92 h
In vivo [2]; female, monkey, 100 mg/kg
  bioavailability: 71.8%
In vivo [2]; female, monkey, 200 mg/kg
  Tmax: 1.5 to 2 h
In vivo [2]; 200 mg/kg
  CL/F at 200 mg/kg relative to the lower doses: about ¼
[3]; male, Sprague Dawley
  plasma levels of DMB at which micronucleus activity occurred: exceeding 500 μg/mL
[3]; male, Sprague Dawley, 14 days
  micronucleated PCEs, mean: 3.3±0.16 MN PCEs/1,000 PCEs
[3]
  frequency of micronucleated erythrocytes (PCEs) compared to controls: statistically significant increase
  increase in micronucleated PCEs in female groups: not observed
  percent PCEs: no effect
  potential to cause genotoxicity (weight of evidence): limited potential to cause genotoxicity
[4]; 0.5 mM, compared to untreated controls, p ≦ 0.01
  Mean Fold Increase: 2.2*
[4]; Active Concentration 0.5 mM
  γ/(γ + β) globin Expression, Range: 0.033-0.052
[5]
  half-life: 9 to 11 h
In vivo [6]; female
  NOAEL at 14 days: 200 mg/kg/day
In vivo [6]; male
  NOAEL at 14 days: 600 mg/kg/day
In vivo [6]
  FOB effects after two-week drug free period: no residual FOB effects
[7]
  tolerability: well tolerated
